Entries after “also recorded” stand apart in the source; their conditions may differ.
Key:
ASCs = experiment: Aggregation of fresh SVF or cultured ASCs in suspension buffer; assay type: cell-based, porcine or human; conditions: for concentration dependence of inhibition of ASC aggregation: EDTA detached ASCs, 2 hours vigorous shaking
Description: SVF was isolated from either excised dorsal hump (porcine) or lipoaspirated subcutaneous (human) adipose tissues using reagents and protocols supplied by Tissue Genesis Inc. (TGI). Cells were used either fresh or after enrichment for stromal cells, containing adipose-derived stem cells (ADSC), by attachment to and growth on uncoated tissue culture plastic. Low passage (P1-P4) cultured ASCs were detached from plastic by 2 mM EDTA treatment. 2−3×10^6 fresh SVF or cultured ASCs were incubated for increasing times in 1 ml of TGI suspension buffer, containing human serum proteins, under varying conditions as indicated in Figure legends. Cell suspensions were vigorously rocked during incubation. At the times indicated the suspensions were observed macroscopically, noting aggregate size and number, as well as microscopically, to quantitate aggregates (defined as a tightly associated grouping of 4 or more cells) as well as individual cells.

ASC = ASC proliferation in presence of heparin; assay type: cell-based
freshly isolated ASC = experiment: Observation of aggregation of freshly isolated ASC after resuspension in delivery medium; assay type: cell-based, pig; conditions: pre-treating SVF with heparin before infusion
Description: Isolation of the adipose stromal-vascular fraction (SVF). Fat was isolated using equipment and reagents from TGI-100 kits (Tissue Genesis, Inc, Honolulu, Hi., USA) following the manufacturer's instructions, with modifications as necessary in order to process the subcutaneous pig fat. Briefly, the fat was finely minced in a sterile container before washing 3 times with the supplied buffer solution. The fat was transferred into 50 ml conical screw cap centrifuge tubes before adding 10 ml of filtered ADIPASE™ solution. The tissue was dissociated by incubation in an Enviro-Genie incubator shaker for 2.5 hours, instead of the manufacturer's recommended digestion time for human fat of 45 minutes. The stromal-vascular pellet was recovered by centrifugation, filtered serially through 100 μm then 40 μm diameter pore size polypropylene filters (FALCON®). Viable cell counts were obtained using a hemacytometer and staining was performed with Trypan blue. Only cells larger than approximately 8 μm in diameter were counted. The cells were resuspended in a 20 ml cell the supplied suspension medium immediately before delivery. In the ASC-H group, the suspension medium contained 50 U heparin/ml. The cells were continuously mixed gently by hand until loaded into the syringe for delivery.
Preparative yield of ASC. […]

O=C(O)CN(CCN(CC(=O)O)CC(=O)O)CC(=O)O [EDTA, ethylenediaminetetra-acetic acid]
effect of EDTA on aggregation with co-addition of Ca^2+ (ASCs; EDTA then 7 mM Ca^2+): reversed | cell aggregation with EDTA in the buffer (ASCs; cultured ASCs, EDTA during incubation): inhibited; also recorded: blocked

heparin
ASC proliferation (ASC; highest concentration, 400 μg/ml): totally inhibited | ASC proliferation (ASC; lowest concentration used, 50 μg/ml): inhibitory | aggregation and subsequent microinfarctions (freshly isolated ASC): substantially diminished | aggregation at the highest concentration used (ASCs; 400 μg/ml): still persisted | concentration dependence of inhibition of ASC aggregation (ASCs): dose dependent | concentration dependence of inhibition of ASC aggregation (ASCs; listed as Heparin): concentration dependent | most effective concentration used for inhibition of ASC aggregation (ASCs; equals 100 U/ml): 400 µg/mL | aggregation of cells (ASCs; heparin 400 μg/ml final conc. in buffer): inhibits | formation of aggregates of all sizes (ASCs; small 4-10 cells, large >10 cells, Image J counts): blocked

trypsin
cell aggregation after trypsin pretreatment (ASCs; cultured ASCs, trypsin for 2 minutes): inhibited; also recorded: blocked

Reference: patent publication US20110208162A1, “METHODS FOR PREVENTING AGGREGATION OF ADIPOSE STROMAL CELLS” (Indiana University Rsearch and Technology Corporation, priority 2008, published 2011)
